As a reminder, the IC50 is the concentration that gives 50% inhibition. High values mean lower potency, low ones higher potency.

In this assay the test system is Human immunodeficiency virus 1. The assay is described as follows: Compound was tested for inhibition of HIV-1. Type of assay: functional, organism-based.
Compound `Nc1ncnc2c1ncn2C=C=CCO` (stereo in doubt; 1a) registered an IC50 of 14 µM.
In turn, `Nc1ncnc2c1ncn2C=C=CCO` (stereo in doubt; 2) registered an IC50 of 5.8 µM.
For `Nc1ncnc2c1ncn2C=C=CCO` (stereo in doubt; 3) the value was over 200 µM.
